Each structure is given as a SMILES string. Active and inactive are the calls of the source. The rule behind the calls is not given here.

Series [1] in a line: Cytotoxicity against human A2780 cells after 72 hrs by MTT assay. In kind it is cell-based.
The next series concerns Haemonchus contortus. Nature of the series: Nematocidal activity against Haemonchus contortus Haecon 5 strain isolated from helminth-free Merino weaner sheep at 12.5 to 100 uM after 6 days by larval development assay. It counts as functional, organism-based.
Series [2] can be described thus: Cytotoxicity against human BE(2)-C cells after 72 hrs by MTT assay. It counts as cell-based.
Series [3] can be described thus: Cytotoxicity against human HT-29 cells after 72 hrs by MTT assay. It counts as cell-based. In general terms: Tetrazolium dyes change colour on reduction, which living cells bring about.
The nature of series [4]: Cytotoxicity against human A431 cells after 72 hrs by MTT assay. In kind it is cell-based, A-431.
Series [5] in a line: Cytotoxicity against human SW480 cells after 72 hrs by MTT assay. In kind it is cell-based.
The nature of series [6]: Cytotoxicity against human SJ-G2 cells after 72 hrs by MTT assay. It counts as cell-based.
A short description of series [7]: Cytotoxicity against human H460 cells after 72 hrs by MTT assay. In kind it is cell-based. To be noted: NCI-H460 cells.
Series [8] can be described thus: Cytotoxicity against human DU145 cells after 72 hrs by MTT assay. In kind it is cell-based, DU-145.
The nature of series [9]: Cytotoxicity against human MCF7 cells after 72 hrs by MTT assay. It counts as cell-based.

With `O=C(O)CCCCCCCNC(=O)C1C(C(=O)O)[C@@H]2CC[C@H]1O2` (stereo partly specified), the 50% growth inhibitory concentration (GI50) at 72 h in series [1], in series [2], in [3], in series [4], in series [5] and in [6] was 10 µM throughout. Besides, the concentration for 50% growth inhibition (GI50) at 72 h in series [7], in series [8] and in series [9] was 10 µM throughout. For the same compound, the inhibition result in the series on Haemonchus contortus was “inactive”.

Consider `CCOC(=O)c1cn[nH]c1NC(=O)C1C(C(=O)O)[C@@H]2CC[C@H]1O2` (stereo partly specified), for which the GI50 at 72 h in series [1], in series [2], in series [3], in series [4], in [5] and in [6] was 10 µM throughout. Further, the GI50 at 72 h in [7], in series [8] and in series [9] was 10 µM each time. Besides, the inhibition result in the series with Haemonchus contortus is “inactive”.

With `O=C(O)C1C(C(=O)Nc2ccccc2)[C@H]2CC[C@@H]1O2` (stereo partly specified), the GI50 at 72 h in [1], in series [2], in [3], in [4], in [5] and in series [6] was 10 µM in each case. Also, the GI50 at 72 h in series [7], in [8] and in series [9] was 10 µM throughout. The inhibition entry in the series on Haemonchus contortus is “inactive”.

Turning to `C/C(=N/Nc1ccccc1)c1ccccc1NC(=O)C1C(C(=O)O)[C@@H]2CC[C@H]1O2` (stereo partly specified), the GI50 at 72 h in series [1], in series [2], in [3], in series [4], in series [5] and in series [6] was 10 µM each time. The concentration for 50% growth inhibition (GI50) at 72 h in series [7], in series [8] and in series [9] was 10 µM in each case. In addition, in the series on Haemonchus contortus, the inhibition result was “inactive”.

Regarding `CCCCCCCCN1C(=O)C2=C(C)[C@H]3C=C[C@@]2(O3)[C@H]1C(=O)NCC(=O)OCC`, in the series on Haemonchus contortus, the inhibition result is “inactive”.

In the case of `CCCCCNC(=O)[C@H]1N(CCCN(C)C)C(=O)C2=C(CCCC)[C@H]3C=C[C@]21O3`, the inhibition result in the series on Haemonchus contortus is “inactive”.

For the compound `O=C(O)C1C(C(=O)Nc2ccc(O)cc2)[C@H]2CC[C@@H]1O2` (stereo partly specified), the GI50 at 72 h in series [1], in series [2], in series [3], in series [4], in series [5] and in series [6] was 10 µM throughout. Further, the GI50 at 72 h in series [7], in series [8] and in [9] was 10 µM each time. Further, the inhibition result in the series with Haemonchus contortus was “inactive”.

`O=C1[C@@H]2[C@H](C(=O)N1c1ncccc1OCc1ccccc1)[C@H]1CC[C@@H]2O1`: the 50% growth inhibitory concentration (GI50) at 72 h in series [1], in series [2], in [3], in series [4], in [5] and in series [6] was > 75 µM each time. The GI50 at 72 h in series [7], in series [8] and in series [9] was > 75 µM each time.

For the compound `CN(C)CCOc1ccccc1N1C(=O)[C@@H]2[C@H](C1=O)[C@H]1CC[C@@H]2O1`, the concentration for 50% growth inhibition (GI50) at 72 h in [1], in series [2], in series [3], in series [4], in series [5] and in series [6] was > 75 µM throughout. Besides, the GI50 at 72 h in [7], in series [8] and in series [9] was > 75 µM in each case.

In the case of `O=C(O)C1C(C(=O)NCc2ccc(Cl)cc2)[C@H]2CC[C@@H]1O2` (stereo partly specified), the GI50 at 72 h in series [1], in series [2], in [3], in [4], in series [5] and in series [6] was 10 µM in each case. The GI50 at 72 h in series [7], in series [8] and in [9] was 10 µM throughout. In addition, the inhibition entry with Haemonchus contortus is “inactive”.

In the case of `CCCCCNC(=O)[C@@H]1N(Cc2ccccc2)C(=O)C2=C(C)[C@H]3C=C[C@]21O3`, in the series on Haemonchus contortus, the inhibition entry is “inactive”.

`CCCCCCCCCCCCCCCCCCN1C(=O)[C@@H]2[C@H](C1=O)[C@H]1CC[C@@H]2O1`: the inhibition result in the series on Haemonchus contortus was “inactive”.

Regarding `CCCCCCCCNC(=O)C1C(C(=O)O)[C@@H]2CC[C@H]1O2` (stereo partly specified), the GI50 at 72 h in series [1], in series [2], in [3], in [4], in series [5] and in [6] was 10 µM throughout. Besides, the 50% growth inhibitory concentration (GI50) at 72 h in [7], in [8] and in series [9] was 10 µM throughout. For the same compound, the inhibition entry in the series with Haemonchus contortus was “inactive”.

Regarding `CCCCCNC(=O)[C@H]1N(Cc2ccccc2)C(=O)C2=C(C)[C@H]3C=C[C@]21O3`, in the series with Haemonchus contortus, the inhibition entry was “inactive”.

With `CCCCCCCCN1C(=O)C2=C(C)[C@H]3C=C[C@@]2(O3)[C@@H]1C(=O)NCC(=O)OCC`, the inhibition result in the series with Haemonchus contortus is “inactive”.

Regarding `O=C(O)C1C(C(=O)NCCc2ccccc2)[C@H]2CC[C@@H]1O2` (stereo partly specified), the GI50 at 72 h in series [1], in [2], in series [3], in series [4], in series [5] and in series [6] was 10 µM each time. In addition, the GI50 at 72 h in series [7], in series [8] and in series [9] was 10 µM in each case. Also, in the series with Haemonchus contortus, the inhibition entry was “inactive”.

In the case of `Cc1cc(C)c(NC(=O)C2C(C(=O)O)[C@@H]3CC[C@H]2O3)c(C)c1` (stereo partly specified), the GI50 at 72 h in series [1], in series [2], in series [3], in series [4], in [5] and in series [6] was 10 µM in each case. Further, the 50% growth inhibitory concentration (GI50) at 72 h in series [7], in series [8] and in [9] was 10 µM throughout. For the same compound, the inhibition result in the series with Haemonchus contortus was “inactive”.

For the compound `CCCCCCCCCCCCCCN1C(=O)[C@@H]2[C@H](C1=O)[C@H]1CC[C@@H]2O1`, the inhibition entry with Haemonchus contortus is “inactive”.

On to `CCCCCCCCCCCCN1C(=O)[C@@H]2[C@H](C1=O)[C@H]1CC[C@@H]2O1`, for which, in the series on Haemonchus contortus, the inhibition result was “inactive”.

For `O=C(O)CCCNC(=O)C1C(C(=O)O)[C@@H]2CC[C@H]1O2` (stereo partly specified), the GI50 at 72 h in series [1], in [2], in series [3], in series [4], in series [5] and in series [6] was 10 µM each time. Further, the 50% growth inhibitory concentration (GI50) at 72 h in series [7], in series [8] and in series [9] was 10 µM in each case. Also, the inhibition result in the series with Haemonchus contortus is “inactive”.

Turning to `O=C(O)c1ccc(NC(=O)C2C(C(=O)O)[C@@H]3CC[C@H]2O3)cc1Cl` (stereo partly specified), the 50% growth inhibitory concentration (GI50) at 72 h in [1], in [2], in [3], in series [4], in [5] and in [6] was 10 µM throughout. For the same compound, the GI50 at 72 h in series [7], in [8] and in series [9] was 10 µM each time. Moreover, the inhibition result in the series with Haemonchus contortus was “inactive”.

`C=CCNC(=O)C1C(C(=O)O)[C@@H]2CC[C@H]1O2` (stereo partly specified): the 50% growth inhibitory concentration (GI50) at 72 h in series [1], in series [2], in series [3], in series [4], in series [5] and in series [6] was 10 µM throughout. Also, the 50% growth inhibitory concentration (GI50) at 72 h in [7], in series [8] and in [9] was 10 µM in each case. Further, the inhibition entry in the series with Haemonchus contortus is “inactive”.

In the case of `CN(C)CCOc1ccc(N2C(=O)[C@@H]3[C@H](C2=O)[C@H]2CC[C@@H]3O2)cc1`, the 50% growth inhibitory concentration (GI50) at 72 h in [1], in series [2], in series [3], in series [4], in series [5] and in [6] was > 75 µM each time. In addition, the GI50 at 72 h in [7], in [8] and in series [9] was > 75 µM each time.

Regarding `CCCCCNC(=O)[C@@H]1N(CCCN(C)C)C(=O)C2=C(CCCC)[C@H]3C=C[C@]21O3`, the inhibition entry with Haemonchus contortus was “inactive”.

Consider `COC(=O)CNC(=O)[C@@H]1N(CCCCCO)C(=O)C2=C(C)[C@H]3C=C[C@]21O3`, for which, in the series with Haemonchus contortus, the inhibition entry is “inactive”.

As to `O=C1[C@@H]2[C@H](C(=O)N1CCOP(=O)(OCC(Cl)(Cl)Cl)OCC(Cl)(Cl)Cl)[C@H]1CC[C@@H]2O1`, the 50% growth inhibitory concentration (GI50) at 72 h in [1], in series [2], in [3], in [4], in series [5] and in series [6] was > 75 µM throughout. The GI50 at 72 h in series [7], in series [8] and in [9] was > 75 µM each time.

Regarding `O=C(O)[C@H](Cc1ccc(O)cc1)N1C(=O)[C@@H]2[C@H](C1=O)[C@H]1CC[C@@H]2O1`, the GI50 at 72 h in series [1], in series [2], in series [3], in series [4], in [5] and in series [6] was > 75 µM throughout. For the same compound, the GI50 at 72 h in series [7], in series [8] and in [9] was > 75 µM each time.

On to `COC(=O)CNC(=O)[C@H]1N(CCCCCO)C(=O)C2=C(C)[C@H]3C=C[C@]21O3`, for which the inhibition result with Haemonchus contortus is “inactive”.

Source of the values: ChEMBL document CHEMBL1777719, “Norcantharidin analogues with nematocidal activity in Haemonchus contortus” (Bioorg Med Chem Lett, 2011).
